From PubChem BioAssay AID1259420 (Broad Institute, 2018)
Several values for one entry are separate records, joined by “and”; a condition that tells them apart may be missing. Equal entries are not always repeated. Records with an inconclusive call do not appear. Activity calls are given as the source filed them. No rule for the calls is given here.

test system: Toxoplasma gondii growth in host cells, no IFN-gamma; experiment: compound activity on host-cell Toxoplasma growth – dose response (AID 1259420);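 also: host cells were HeLa; final incubation lasted 72 hours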

SMILES	AC50
NCCCCCCCCCCNS(=O)(=O)c1cccc2c(Cl)cccc12	15.9 µM
CN(Cc1ccccn1)C(=O)C1=NOC2(CCN(S(=O)(=O)c3ccc(F)cc3)C2)C1 (centres undefined)	> 39 µM (inactive)
N#Cc1cccc(-c2ccc(C3[C@@H]4CN(C(=O)c5ccc6c(c5)OCO6)C[C@H]3N4)cc2)c1 (some centres undefined)	> 39 µM (inactive)
CCCNC(=O)N1[C@@H](C#N)[C@H](c2ccc(C#Cc3cccc(F)c3)cc2)[C@@H]1CO	19.3 µM
COc1cc2nc(N3CCN(C(=O)c4ccco4)CC3)nc(N)c2cc1OC	19 µM
O=C(Nc1ccc(F)cc1)N1CC(=O)N2[C@H](C1)[C@@H](c1ccc(-c3cccc(F)c3)cc1)[C@@H]2CO	29.4 µM and 15.6 µM
Cc1nc2ccccn2c1CN(C)Cc1cnn(-c2ccccc2)c1	12.2 µM
CC(C)CC#Cc1ccc([C@H]2[C@@H](CO)N3CCCCN(C(=O)Nc4ccccc4)C[C@@H]23)cc1	15.5 µM
O=C(Nc1cccc(F)c1)N1CCCCN2[C@H](CO)[C@@H](c3ccc(C#Cc4cccnc4)cc3)[C@H]2C1	23.6 µM
CCN(CC)CCO[C@H]1CC[C@@]2(C)C(=CC[C@@H]3[C@@H]2CC[C@]2(C)C(=O)CC[C@@H]32)C1	> 39 µM (inactive)
COc1ccc(NC(=O)N2CCCCN3[C@H](CO)[C@@H](c4ccc(-c5ccccc5F)cc4)[C@@H]3C2)cc1	19.1 µM
O=C(NC1CCCCC1)N1C[C@@H]2N[C@H](C1)C2c1ccc(-c2ccc(F)cc2)cc1 (some centres undefined)	23 µM
CC(C)NC(=O)N1CCC2(CC1)OCCN(CCO)c1ccccc12	> 39 µM (inactive)
O=C(Cc1cccnc1)N1CC(=O)N2[C@H](CO)[C@@H](c3ccc(C#CC4CCCCC4)cc3)[C@H]2C1	> 20 µM (inactive)
Cc1cc(C(=O)Nc2ccc3c(c2)C(=O)N(C)[C@@H]2CC[C@@H](CC(=O)NCc4ccc(-c5ccccc5)cc4)O[C@@H]2CO3)no1	17.9 µM
O=C(NC1CCCC1)N1CC[C@H]2CN(Cc3ccc(Cl)cc3)S(=O)(=O)[C@@H]2CC1	28.5 µM
Clc1cncc(OC[C@H]2CO[C@@H]3CN(Cc4cccs4)C[C@@H]23)c1	> 39 µM (inactive)

SMILES	AC50
COc1ccccc1NC(=O)N1C[C@H](O)COC[C@@H]2O[C@@H](CC(=O)N3CCC(Cc4ccccc4)CC3)CC[C@H]21	> 39 µM (inactive)
O=C(CC1CCC2(CC1)CCN(c1ncc(F)cn1)CC2)N1CC=CC1	21.7 µM
CC(C)CC#Cc1ccc([C@@H]2[C@@H](CO)N3CCCCN(C(=O)Nc4ccccc4)C[C@H]23)cc1	15.9 µM
O=C(C1CCC1)N1CC[C@H]2CN(Cc3cccc(Cl)c3)S(=O)(=O)[C@@H]2CC1	> 39 µM (inactive)
O=C(C1CCC1)N1C[C@@H]2N[C@H](C1)C2c1ccc(/C=C/c2ccccc2)cc1 (some centres undefined)	12.7 µM and 11.5 µM
O=C(C[C@@H]1CC[C@@H]2[C@H](COC[C@H](O)CN2Cc2ccc3c(c2)OCO3)O1)N1CCCCC1	> 39 µM (inactive)
CCN1C[C@@H](COC)[C@]2(CCN(C(=O)COc3ccccc3C)C2)C1	> 39 µM (inactive)
CC(C)N1CCC2(CC1)CC(COCC1CC1)N(c1ncccn1)C2 (centres undefined)	35.9 µM
CO[C@@H]1[C@@H](OC(N)=O)[C@@H](O)[C@H](Oc2ccc3c(O)c(NC(=O)c4ccc(O)c(CC=C(C)C)c4)c(=O)oc3c2C)OC1(C)C	18 µM
CCCN1CCC[C@@H]2Cc3[nH]ncc3C[C@H]21	> 39 µM (inactive)
Cc1ccc(C)c(S(=O)(=O)N2CCC3(CC2)c2ncc(-c4cccc(F)c4)n2CCN3C)c1	> 20 µM (inactive)
COCCNC(=O)C[C@@H]1C[C@@H]2CN(Cc3ccncc3)C[C@H]2O1	29 µM
COc1ccc(CN2CCO[C@H]3[C@H]2CC[C@H]3OCCCn2cccn2)cc1	> 39 µM (inactive)
O=C(NC1CCCC1)[C@H]1[C@H](CO)[C@H]2Cn3c(ccc(C4=CCCCC4)c3=O)[C@@H]1N2CC1CC1	> 39 µM (inactive)
O=C(CC1CC1)N1CC[C@@H]2[C@H]1c1cc(-c3ccc(F)cc3)ccc1N[C@@H]2CO	16.3 µM
CCN(C)C(=O)c1ccc2ccc(N(C)Cc3ccc(OC)cc3)n2c1	19.2 µM
Cc1ccccc1-c1ccc(C2[C@@H]3CN(C(=O)c4ccc(F)cc4)C[C@H]2N3)cc1 (some centres undefined)	> 42 µM (inactive)
